{"source": "patent US20260217712A1", "about": "“SOLID STATE FORMS OF MNK INHIBITORS” (4E Therapeutics, Inc., priority 2023, published 2026)", "type_in_all_cases": "physicochemical", "key": {"LogD": {"test": "LogD"}, "[1]": {"test": "Gravimetric vapor sorption (GVS) and XRPD post-GVS", "settings": "for GVS reversible water uptake 0-90% RH: 25° C.; for Post GVS XRPD form: after double cycle GVS", "protocol": "Sorption isotherms were obtained using a SMS DVS Intrinsic moisture sorption analyzer, controlled by DVS Intrinsic Control software. The sample temperature was maintained at 25° C. by the instrument controls. The humidity was controlled by mixing streams of dry and wet nitrogen, with a total flow rate of 200 mL/min. The relative humidity was measured by a calibrated Rotronic probe (dynamic range of 1.0-100% RH), located near the sample. The weight change, (mass relaxation) of the sample as a function of % RH was constantly monitored by a microbalance (accuracy±0.005 mg).\nTypically, 5-30 mg of sample was placed in a tared mesh stainless steel basket under ambient conditions. The sample was loaded and unloaded at 40% RH and 25° C. (typical room conditions). A moisture sorption isotherm was performed as outlined below (2 scans per complete cycle). The standard isotherm was performed at 25° C. at 10% RH intervals over a 0-90% RH range. Typically, a double cycle (4 scans) was carried out. Data analysis was carried out within Microsoft Excel using the DVS Analysis Suite.\nSorption isotherms were obtained using a Hiden IGASorp moisture sorption analyser, controlled by Isochema HISorp software. The sample temperature was maintained at 25° C. by a Grant LT ecocool 150 re-circulating water bath. The humidity was controlled by mixing streams of dry and wet nitrogen, with a total flow rate of 250 ml·min-1. The relative humidity was measured by a calibrated Vaisala RH probe (dynamic range of 0-95% RH), located near the sample. The weight change, (mass relaxation) of the sample as a function of % RH was constantly monitored by the microbalance (accuracy±0.001 mg).\nTypically, 20-30 mg of sample was placed in a tared mesh stainless steel basket under ambient conditions. The sample was loaded and unloaded at 40% RH and 25° C. (typical room conditions). A moisture sorption isotherm was performed as outlined below (2 scans giving 1 complete cycle). The standard isotherm was performed at 25° C. at 10% RH intervals over a 0-90% RH range. Typically, a double cycle (4 scans) was carried out. Data analysis was carried out within the Isochema HISorp 2019 software and exported into Microsoft Excel to present accordingly."}, "XRPD under vacuum": {"test": "XRPD under vacuum", "settings": "for XRPD under vacuum: after 30 min under vacuum", "from_the_text": "XRPD diffractograms were collected on a PANalytical Empyrean diffractometer using Cu Kα radiation (45 kV, 40 mA, λ=1.544398 Å) in reflection geometry. The instrument was fitted with an Anton Paar CHC plus+ stage fitted with graphite/Kapton windows and equipped with air cooling coupled or a low vacuum pump system using an Edwards RV3 pump. A programmable divergence slit (in automatic mode), with a 10 mm fixed incident beam mask, Ni filter and 0.04 rad Soller slits were used on the incident beam. A PIXcel3D detector, placed on the diffracted beam, was fitted with a programmable anti-scatter slit (in automatic mode) and 0.04 rad Soller slits.\nFor XRPD under vacuum the samples were prepared and analyzed in an Anton Paar chromed sample holder. The sample temperature was kept constant throughout at 25° C. The measurement parameters are as per the standard screening data collection method (detailed above). An initial measurement was taken before the vacuum was initiated and then subsequently at 10 min intervals. Data collection was stopped after three consecutive scans showing no change."}, "[2]": {"test": "Single crystal X-ray diffraction", "protocol": "Crystals of Structure (I) Pattern 3 were obtained by evaporation of a THF:water 9:1 solution. A crystal of Structure (I) Pattern 3 of sufficient size and quality for analysis by single crystal X-ray diffraction was isolated from the sample with approximate dimensions 0.15×0.05×0.02 mm.\nThe single crystal X-ray structure of Structure (I) Pattern 3 was determined at 293(2) K and a summary of the structural data can be found in Table 41. The crystal structure of Structure (I) Pattern 3 was solved in the triclinic space group P-1 with the final R1 [I>2σ(I)]=4.36%. The structure was identified as depicted in FIG. 89 and FIG. 90 and the asymmetric unit found to contain two molecules of Structure (I)."}}, "note": "Like-named read-outs stand apart in the source and are kept apart here.", "data": [{"smiles": "Cc1cc(Nc2cc(N)ncn2)c(=O)n2c1C(=O)NC21CCC2(CC2)CC1", "note": "[Pattern 3]", "values": [{"measurement": "logD", "setting": "LogD", "value": 3.1}, {"measurement": "hygroscopicity (in words)", "setting": "[1]", "value": "hygroscopic"}, {"measurement": "GVS reversible water uptake 0-90% RH", "setting": "[1]", "value": 8.4, "unit": "wt %"}, {"measurement": "GVS reversible water uptake 0-90% RH", "setting": "[1]; listed as Lot B Sample 1", "value": "8.4 wt % reversible water uptake"}, {"measurement": "GVS uptake 80-90% RH", "setting": "[1]; 80-90% RH", "value": 6.3, "unit": "wt % uptake 80-90% RH"}, {"measurement": "Post GVS XRPD form", "setting": "[1]", "value": "the solid form was retained"}, {"measurement": "Post GVS XRPD form", "setting": "[1]; listed as Lot B Sample 1", "value": "Post GVS XRPD: No change in form"}, {"measurement": "hygroscopicity (in words)", "setting": "[1]; listed as Lot B", "value": "hygroscopic"}, {"measurement": "hygroscopicity (in words)", "setting": "[1]; listed as Lot B Sample 1", "value": "Material is hygroscopic"}, {"measurement": "XRPD under vacuum", "setting": "XRPD under vacuum; listed as Lot B", "value": "converted to Pattern 10"}, {"measurement": "XRPD under vacuum", "setting": "XRPD under vacuum; listed as Lot B Sample 1", "value": "Conversion to Pattern 10 after 30 min"}, {"measurement": "XRPD after vacuum released", "setting": "XRPD under vacuum; vacuum released for 30 min, ambient conditions, listed as Lot B Sample 1", "value": "Conversion back to Pattern 3 after"}, {"measurement": "F(000)", "setting": "[2]", "value": 796}, {"measurement": "Density (calculated)", "setting": "[2]; 293(2) K", "value": 1.339, "unit": "Mg/m^3"}, {"measurement": "Unit cell dimensions a", "setting": "[2]; 293(2) K", "value": "a = 10.1823(3) Å Å"}, {"measurement": "Unit cell dimensions b", "setting": "[2]; 293(2) K", "value": "b = 12.1136(4) Å Å"}, {"measurement": "Unit cell dimensions c", "setting": "[2]; 293(2) K", "value": "c = 16.6675(3) Å Å"}, {"measurement": "Unit cell dimensions α", "setting": "[2]; 293(2) K", "value": "α = 72.512(2)°"}, {"measurement": "Unit cell dimensions β", "setting": "[2]; 293(2) K", "value": "β = 79.465(2)°"}, {"measurement": "Unit cell dimensions γ", "setting": "[2]; 293(2) K", "value": "γ = 72.661(3)°"}, {"measurement": "Z", "setting": "[2]; 293(2) K", "value": 4}, {"measurement": "Crystal system", "setting": "[2]; 293(2) K, wavelength 1.54184 Å", "value": "Triclinic"}, {"measurement": "Crystal habit", "setting": "[2]; crystal from THF:Water 9:1, evaporative", "value": "Colorless lath"}, {"measurement": "Volume", "setting": "[2]; unit cell, 293(2) K", "value": "1861.87(10) Å^3"}, {"measurement": "Absorption coefficient", "setting": "[2]; wavelength 1.54184 Å", "value": 0.756, "unit": "mm^−1"}]}]}
